# According to PubChem BioAssay AID463174 (Southern Research Specialized Biocontainment Screening …, 2010):
# pIC50: −log10 of the molar value. Calls of active or inactive are those of the source. No rule for the calls is given here.
# System: S. Typhi promoter-GFP counter-screen, fluorescence, 4 h
# Assay: late-stage follow-up, counter-screen for PhoP regulon inhibitor project, purified and synthesized compounds, set 5 (AID 463174)
# Settings: not given
row,SMILES,pIC50
1,O=C1C2=C(Nc3ccccc3SC2c2ccc(Cl)cc2)c2ccccc21 (stereo unspecified),4.05

# System: not listed separately
# Assay: as above
# Settings: S. Typhi promoter-GFP counter-screen, fluorescence, 4 h; at 150 µM (top of the series)
row,SMILES,inhibition
1,O=C1C2=C(Nc3ccccc3SC2c2cccc(Br)c2)c2ccccc21 (stereo unspecified),-12.6% (inactive)
2,Clc1ccc(C2Sc3ccccc3N=C3c4ccccc4CC32)cc1 (stereo unspecified),-48.2% (inactive)
3,Cc1ccc(C2Sc3ccccc3N=C3c4ccccc4CC32)cc1 (stereo unspecified),-45.3% (inactive)
4,COc1cccc(NC(=O)N2CCCN(Cc3ccccc3F)C2)c1,-3.56% (inactive)
5,O=C1C2=C(Nc3ccccc3SC2c2cccnc2)c2ccccc21 (stereo unspecified),-32.9% (inactive)
